From article PMC12362585, “Development and Preclinical Characterization of [^18F]H3-2406 and [^18F]H3-2407 for Positron Emission Tomography Imaging of the Histamine Subtype‑3 Receptor” (Journal of Medicinal Chemistry, 2025)

Assays:
[1] = In vitro stability in liver microsomes, NHPs; assay type: in vitro ADME, nonhuman primates (NHPs); conditions: 90 min
Method: To assess the stability of [^18F]3, in vitro radioactivity analyses were conducted following 30-, 60- and 90 min coincubation of the radioligand in the serum and liver microsomes from mice, nonhuman primates (NHPs), and humans (Figure ).
Serum from mice, NHPs, and humans were warmed to room temperature, 15 MBq of [^18F]3 was added to 0.4 mL of each species’ serum. The mixtures were incubated at 37 °C and 0.1 mL of mixture was transferred into 0.2 mL cold acetonitrile at 30, 60, and 90 min. The samples were vortexed for 15 s and then centrifuged at 10,000g for 5 min. The supernatant was analyzed using analytical HPLC (Agilent 1100 series HPLC system on Phenomenex Luna C-18 column (4.6 × 150 mm), mobile phase 30% CH3CN/0.1% TFA in water, flow:1 mL/min). For microsomes studies, a mixture of microsomes (0.5 mg/mL), [^18F]3 (15 MBq), 0.35 mL of PBS, 0.05 mL of NADPH regenerating system A, and 0.01 mL of NADPH regenerating system B were incubated at 37 °C. The subsequent steps followed the same procedure as described above.

[2] = Ex vivo whole-body biodistribution; assay type: in vivo; conditions: 5 min postadministration, CD1 mice
Method: To further investigate the whole-body distribution of [^18F]3, ex vivo biodistribution experiments were conducted in CD1 mice at 5-, 15-, 30-, and 60 min postadministration. […] Initially, high levels of radioactivity were detected in the heart, lung, and kidney, with subsequent clearance observed in these organs over time. […] Minimal radioactivity was detected in the blood and bone at all time points throughout the study. […] These findings indicate that our tracer is relatively stable against in vivo defluorination.
A dose of 1.0 MBq of [^18F]3 in 0.1 mL saline was intravenously injected into the tail vein of CD1 mice (5–6 weeks). At various time-points (5-, 15-, 30- and 60 min) postinjection, the mice were sacrificed, and their organs were collected and weighed. The radioactivity of each organ was measured using a γ counter (PerkinElmer Wizard).

[3] = Ex vivo radiometabolite analysis in brain and plasma; conditions: CD1 mice, 30 min postinjection
Method: Next, ex vivo stability in the brain and plasma of CD1 mice was analyzed by radio-HPLC (Figure ). At 30 min postinjection, the parent fraction of [^18F]3 in the brain was determined to be 96%, indicating excellent in vivo metabolic stability. In the blood, 31% of the radioactivity remained intact.
A dose of 15 MBq of [^18F]3 in 0.1 mL saline was intravenously injected into the tail vein of CD1 mice (5–6 weeks). The mice were sacrificed at 30 min postinjection, and the mice brain and blood were quickly collected and homogenized with cold acetonitrile. […] The radioactivity for each fraction was measured using a γ counter (PerkinElmer Wizard). Data analysis was performed by GraphPad Prism 8.0, and the percentage of [^18F]3 relative to total radioactivity (corrected for decay) was calculated as (peak area for [^18F]3 /total peak area) × 100%.

parent fraction in liver microsomes [1]: 85%
brain uptake [2]: 10.9 %ID/g
parent fraction in the brain [3]: 96%
Compound: O=C([C@H]1C[C@@H]1c1ccc([18F])cc1)N1CCN(C2CCCC2)CC1 [[^18F]3]
